Assay results reported in publication PMC6753678, “Fueling Open Innovation for Malaria Transmission-Blocking Drugs: Hundreds of Molecules Targeting Early Parasite Mosquito Stages” (Frontiers in Microbiology, 2019).
Where “and” joins values, the source holds several entries; their conditions need not be identical. Equal entries are not always repeated. Where two headings read alike, the source gives them in different places.

What was measured:
[1] = system: P. falciparum female gametocytes; experiment: P. falciparum Dual Gamete Formation Assay (Pf DGFA), female readout; conditions: for Pf DGFA Female, Expt 1 / Pf DGFA Female, Expt 2 / Pf DGFA Female, Expt 3 / Pf DGFA Female, Expt 4: 1µM; for % inhibition Pf DGFA (female) 1 μM (±SEM): mean of four experiments; for inhibition at 1 µM: Plasmodium falciparum, read-out: % inhibition Pf DGFA (female) 1 μM (±SEM), 1 μM, mean of four experiments
[2] = system: P. berghei oocyst intensity in Anopheles stephensi mosquitoes; experiment: P. berghei standard membrane feeding assay (Pb SMFA); conditions: for Raw mosquito counts (oocysts per mosquito): one mosquito per cell; for Number of oocysts counted per mosquito (raw mosquito counts): individual mosquito
[3] = system: 3D7-strain P. falciparum asexual parasites; experiment: P. falciparum asexual growth inhibition assay (Pf GIA); format: cell-based, Plasmodium falciparum; conditions: Plasmodium falciparum
Summary of the method: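 LDH readout: absorbance at 650 nm after 10 min at room temperature with lactate/APAD/NBT/diaphorase mix on thawed plates. Cultures (0.25% parasitemia, 2% hematocrit) were treated 72 h at 37°C in low-oxygen gas. Inhibition was normalised to 50 μM chloroquine and DMSO; n=3 biological replicates.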

[4] = system: P. berghei ookinete development; experiment: microbe, parasite or virus in culture; conditions: Plasmodium berghei
[5] = system: P. falciparum male gametocytes; experiment: P. falciparum Dual Gamete Formation Assay (Pf DGFA), male readout; conditions: for Pf DGFA Male, Expt 1 / Pf DGFA Male, Expt 2 / Pf DGFA Male, Expt 3 / Pf DGFA Male, Expt 4: 1µM; for inhibition at 1 µM: Plasmodium falciparum, read-out: % inhibition Pf DGFA (male) 1 μM (±SEM), 1 μM, mean of four experiments
[6] = system: P. berghei ookinete development
[7] = system: HepG2 cells; experiment: HepG2 cytotoxicity assay; conditions: for Pb ODA (this manuscript) HepG2 cytoxicity: HepG2 cytotoxicity listed with the Pb ODA data set (this manuscript); for IC50: Homo sapiens, HepG2, 48 h, read-out: IC50 HepG2
Summary of the method: (§1)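 Percent inhibition derived from fluorescent viability readout, normalised to DMSO (negative) and 50 μM doxorubicin (positive). Compound incubation lasted 48 h at 37°C, 5% CO2, with 2,500 HepG2 cells/well in MEM plus 10% FBS and 1% NEAA.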

[8] = HepG2 cytotoxicity assay; conditions: human, HepG2 cells
Summary of the method: as §1

[9] = read-out: % inhibition Pb SMFA 1 μM (±SEM), inhibition of oocyst intensity at 1 μM
[10] = 3D7, dose response confirmation, read-out: Pf asexual growth inhibition assays IC50
[11] = 3D7, 72 h, LDH readout, read-out: IC50 Pf Asexual
[12] = read-out: % inhibition, Replicate A
[13] = read-out: % inhibition, Replicate B
[14] = read-out: IC50 Pb ODA, dose response, at least triplicate

## Cc1[nH]c(C)c(-c2ccc(CCc3ccc(F)cc3F)cc2)c(=O)c1Br [TCMDC-135461]
[1]
  Pf DGFA Female, Expt 1: 72.43
  Pf DGFA Female, Expt 2: 81.97
  Pf DGFA Female, Expt 3: -31.20
  Pf DGFA Female, Expt 4: -13.42
  % inhibition Pf DGFA (female) 1 μM (±SEM): 27.45%
  inhibition at 1 µM: 27.4%
[2]; Experiment 4, 10nM
  Mean (number of oocysts counted per mosquito): 0.78
  Prevalence: 45.65
[2]; Experiment 4, 100nM
  Mean (number of oocysts counted per mosquito): 0.00
  Raw mosquito counts (oocysts per mosquito): 0
[2]; Experiment 4, 1µM
  Mean (number of oocysts counted per mosquito): 0.00
  Prevalence: 0.00
  Raw mosquito counts (oocysts per mosquito): 0
[2]; Experiment 5, 10nM
  Mean (number of oocysts counted per mosquito): 2.70
  Prevalence: 45.65
[2]; Experiment 5, 100nM
  Mean (number of oocysts counted per mosquito): 1.53
  Number of oocysts counted per mosquito (raw mosquito counts): 0 and 1 and 3
[2]; Experiment 5, 1µM
  Mean (number of oocysts counted per mosquito): 0.00
  Prevalence: 0.00
  Number of oocysts counted per mosquito (raw mosquito counts): 0
  Raw mosquito counts (oocysts per mosquito): 0
[2]; Experiment 6, 10nM
  Mean (number of oocysts counted per mosquito): 58.31
  Prevalence: 98.15
[2]; Experiment 6, 100nM
  Mean (number of oocysts counted per mosquito): 21.75
  Prevalence: 86.76
  Number of oocysts counted per mosquito (raw mosquito counts): 30
[2]; Experiment 6, 1µM
  Mean (number of oocysts counted per mosquito): 0.00
  Prevalence: 0.00
  Number of oocysts counted per mosquito (raw mosquito counts): 0
  Raw mosquito counts (oocysts per mosquito): 0
[2]; read-out: % inhibition (oocyst intensity), Experiment 4, 100nM, vs DMSO
  inhibition at 0.1 µM: 100%
[2]; read-out: % inhibition (oocyst intensity), Experiment 4, 1µM, vs DMSO
  inhibition at 1 µM: 100%
[2]; read-out: % inhibition (oocyst intensity), Experiment 5, 10nM, vs DMSO
  inhibition at 0.01 µM: 28.9%
[2]; read-out: % inhibition (oocyst intensity), Experiment 5, 100nM, vs DMSO
  inhibition at 0.1 µM: 59.6%
[2]; read-out: % inhibition (oocyst intensity), Experiment 5, 1µM, vs DMSO
  inhibition at 1 µM: 100%
[2]; read-out: % inhibition (oocyst intensity), Experiment 6, 10nM, vs DMSO
  inhibition at 0.01 µM: 30.5%
[2]; read-out: % inhibition (oocyst intensity), Experiment 6, 100nM, vs DMSO
  inhibition at 0.1 µM: 74.1%
[2]; read-out: % inhibition (oocyst intensity), Experiment 6, 1µM, vs DMSO
  inhibition at 1 µM: 100%
[2]; [9]
  inhibition at 1 µM: 100%
[2]; read-out: % prev inhibition, Experiment 4, 1µM, vs DMSO
  inhibition at 1 µM: 100%
[2]; read-out: % prev inhibition, Experiment 5, 1µM, vs DMSO
  inhibition at 1 µM: 100%
[2]; read-out: % prev inhibition, Experiment 6, 10nM, vs DMSO
  inhibition at 0.01 µM: 1.85%
[2]; read-out: % prev inhibition, Experiment 6, 100nM, vs DMSO
  inhibition at 0.1 µM: 13.2%
[2]; read-out: % prev inhibition, Experiment 6, 1µM, vs DMSO
  inhibition at 1 µM: 100%
[2]; read-out: inhibition of oocyst intensity Pb SMFA, 10 nM
  inhibition at 0.01 µM: 43%
[2]; read-out: inhibition of oocyst intensity Pb SMFA, 100 nM
  inhibition at 0.1 µM: 77.9%
[3]; [10]
  IC50: 3 nM
[3]; [11]
  IC50: 3.1 nM
[4]; [12]
  inhibition at 1 µM: 68.3%
[4]; [13]
  inhibition at 1 µM: 109%
[4]; [14]
  IC50: < 0.0002 µM
[5]
  Pf DGFA Male, Expt 1: 97.72
  Pf DGFA Male, Expt 2: 60.95
  Pf DGFA Male, Expt 3: 69.63
  Pf DGFA Male, Expt 4: 73.29
  inhibition at 1 µM: 75.4%
[6]
  Is compound selective in assay? Pb ODA active?: 1 (key: 1: YES; 0: NO)
[7]
  Pb ODA (this manuscript) HepG2 cytoxicity: 100.00 µM
  IC50: > 100000 nM

## COc1ccc2ncc(F)c(CCN3CCC(NC(=O)c4ccc5c(n4)NC(=O)CS5)C(O)C3)c2n1 (centres unmarked) [TCMDC-135907]
[1]
  Pf DGFA Female, Expt 1: 25.41
  Pf DGFA Female, Expt 2: -9.01
  Pf DGFA Female, Expt 3: -10.92
  Pf DGFA Female, Expt 4: -26.87
[2]; [9]
  inhibition at 1 µM: 56.2%
[3]; [10]
  IC50: 2020 nM
[3]; [11]
  IC50: 2020 nM
[4]; [12]
  inhibition at 1 µM: 99.8%
[4]; [13]
  inhibition at 1 µM: 69.5%
[4]; [14]
  IC50: > 0.25 µM
[4]; read-out: Pb ODA IC50, this manuscript
  IC50: 0.38 µM
[5]
  Pf DGFA Male, Expt 1: 27.09
  Pf DGFA Male, Expt 2: -8.08
  Pf DGFA Male, Expt 3: -8.79
  Pf DGFA Male, Expt 4: 59.50
  inhibition at 1 µM: 17.4%
[6]; 1: YES, 0: NO
  Is compound selective in assay? Pb ODA active?: 1 (1: YES)
[6]; [14]
  IC50: 381 nM
[7]; HepG2, this manuscript
  HepG2 cytoxicity (Pb ODA, this manuscript): 42.17 µM
[7]; HepG2 values of the three screens unified
  Unified cytotox: 42.17 µM
[7]
  IC50: 42200 nM
[8]
  IC50 at 48 h: 42200 nM

## CCCCCCCc1c(C)nc2cc(OC)ccc2c1O [TCMDC-137173, endochin]
[1]
  Pf DGFA Female, Expt 1: 46.16
  Pf DGFA Female, Expt 2: 7.10
  Pf DGFA Female, Expt 3: 41.06
  Pf DGFA Female, Expt 4: -10.25
  % inhibition Pf DGFA (female) 1 μM (±SEM): 21.02%
  inhibition at 1 µM: 21%
[2]; [9]
  inhibition at 1 µM: 98.4%
[3]; [10]
  IC50: 35 nM
[3]; [11]
  IC50: 35.2 nM
[4]; [12]
  inhibition at 1 µM: 115%
[4]; [13]
  inhibition at 1 µM: 101%
[4]; [14]
  IC50: < 0.06 µM
[4]; read-out: Pb ODA (this manuscript) IC50 (µM), P. berghei ookinete development assay, this manuscript
  IC50: 0.0248 µM
[4]; read-out: Pb Ookinete development assay IC50 (µM), dose response confirmation
  IC50: 0.025 µM
[5]
  Pf DGFA Male, Expt 1: 94.68
  Pf DGFA Male, Expt 2: 60.36
  Pf DGFA Male, Expt 3: 74.13
  Pf DGFA Male, Expt 4: 77.74
  inhibition at 1 µM: 76.7%
[5]; 1 μM, mean of four experiments
  % inhibition Pf DGFA (male) 1 μM (±SEM): 76.7% and 76.73%
[6]
  Is compound selective in assay? Pb ODA active?: 1 (key: 1: YES; 0: NO)
[7]
  Pb ODA (this manuscript) HepG2 cytoxicity: 100.00 µM
  IC50: > 100000 nM
